Results published in patent US20250215029A1 (Recludix Pharma, Inc., priority 2022, published 2025).
Like-named read-outs stand apart in the source and are kept apart here.

Tests used:
pY705-STAT3 in PBMC = target: T1, pY705-STAT3 in PBMC (Homo sapiens, UniProt P40763); test: MSD-pSTAT-PBMC Assay (pSTAT3, IL-6 stimulated); assay type: cell-based; details: PBMC, compound 3 hrs, then 10 ng/mL IL-6 for 10 min
T1 construct: Cryopreserved Peripheral Blood Mononuclear Cells (PBMC) are from AllCells; host or cells: cryopreserved PBMC
T1 sequence (P40763 whole entry): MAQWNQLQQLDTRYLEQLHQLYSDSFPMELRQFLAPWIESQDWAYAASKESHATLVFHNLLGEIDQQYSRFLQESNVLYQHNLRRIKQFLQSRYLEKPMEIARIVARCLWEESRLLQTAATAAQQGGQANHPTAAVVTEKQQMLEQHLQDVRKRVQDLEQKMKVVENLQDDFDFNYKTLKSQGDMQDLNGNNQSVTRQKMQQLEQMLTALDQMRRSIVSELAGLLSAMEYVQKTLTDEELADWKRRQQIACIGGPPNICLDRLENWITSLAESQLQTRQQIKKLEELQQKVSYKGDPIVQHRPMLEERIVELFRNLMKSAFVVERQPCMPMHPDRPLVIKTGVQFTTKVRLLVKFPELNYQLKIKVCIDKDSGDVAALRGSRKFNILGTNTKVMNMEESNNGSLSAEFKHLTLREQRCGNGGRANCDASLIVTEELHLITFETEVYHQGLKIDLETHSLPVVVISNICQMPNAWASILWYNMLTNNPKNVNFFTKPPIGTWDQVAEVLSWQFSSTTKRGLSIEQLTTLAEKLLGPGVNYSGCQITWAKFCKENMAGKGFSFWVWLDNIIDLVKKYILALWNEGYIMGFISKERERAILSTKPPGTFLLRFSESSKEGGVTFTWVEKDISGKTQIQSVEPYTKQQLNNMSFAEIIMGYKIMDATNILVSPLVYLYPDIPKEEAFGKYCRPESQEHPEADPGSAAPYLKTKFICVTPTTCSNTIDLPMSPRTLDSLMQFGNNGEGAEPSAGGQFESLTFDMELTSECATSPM
Method in brief: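 Human PBMCs were pretreated with compound for 3 h, then stimulated with 10 ng/mL IL-6 for 10 min. Lysate pY705-STAT3 was measured by MSD sandwich immunoassay (anti-STAT3 capture) and corrected for unstimulated background. Signal was normalized to DMSO, and IC50 came from variable-slope regression.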

pY641-STAT6 in PBMC = target: T2, pY641-STAT6 in PBMC (Homo sapiens, UniProt P42226); test: MSD-pSTAT-PBMC Assay (pSTAT6, IL-4 stimulated); assay type: cell-based; details: compound 3 hrs, then 1 ng/mL IL-4 for 10 min
T2 construct: Cryopreserved Peripheral Blood Mononuclear Cells (PBMC) are from AllCells; host or cells: cryopreserved PBMC
T2 sequence (P42226 1-847): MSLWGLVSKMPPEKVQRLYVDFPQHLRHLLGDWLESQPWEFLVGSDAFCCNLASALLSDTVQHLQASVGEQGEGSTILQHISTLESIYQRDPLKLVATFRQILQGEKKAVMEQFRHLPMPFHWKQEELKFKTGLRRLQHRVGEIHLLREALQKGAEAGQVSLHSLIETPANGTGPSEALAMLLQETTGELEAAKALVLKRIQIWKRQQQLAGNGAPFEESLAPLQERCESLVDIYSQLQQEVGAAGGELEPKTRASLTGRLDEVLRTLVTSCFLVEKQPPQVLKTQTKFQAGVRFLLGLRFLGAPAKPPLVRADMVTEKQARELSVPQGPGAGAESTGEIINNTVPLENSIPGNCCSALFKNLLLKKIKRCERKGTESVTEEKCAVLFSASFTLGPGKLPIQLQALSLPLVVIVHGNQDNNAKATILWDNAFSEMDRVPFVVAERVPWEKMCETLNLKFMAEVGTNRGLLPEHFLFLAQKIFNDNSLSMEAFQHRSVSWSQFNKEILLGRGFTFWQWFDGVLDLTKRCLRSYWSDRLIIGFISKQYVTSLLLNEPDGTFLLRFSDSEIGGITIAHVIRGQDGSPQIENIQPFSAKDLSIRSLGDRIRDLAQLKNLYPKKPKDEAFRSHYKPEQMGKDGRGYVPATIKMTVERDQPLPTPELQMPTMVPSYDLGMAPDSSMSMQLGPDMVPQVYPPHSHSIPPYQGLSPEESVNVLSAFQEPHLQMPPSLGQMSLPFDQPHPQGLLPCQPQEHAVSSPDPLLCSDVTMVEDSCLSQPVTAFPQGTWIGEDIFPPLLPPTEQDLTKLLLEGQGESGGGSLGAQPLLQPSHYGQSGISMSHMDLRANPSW
Method in brief: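 Inhibition of cytokine-induced STAT phosphorylation was measured in recovered human PBMC after 3 hrs compound exposure and a 10 min IL-4 (1 ng/mL) or IL-6 (10 ng/mL) challenge. MSD detection of pY641-STAT6 or pY705-STAT3 yielded IC50 values.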

[1] = PBMC, Table 1114, read-out: pSTAT6
[2] = PBMC, Table 115, read-out: STAT6

Compound	IC50 (pY705-STAT3 in PBMC; Table 1114, read-out: pSTAT3)	IC50 (pY641-STAT6 in PBMC; [1])	IC50 (pY705-STAT3 in PBMC; Table 115, read-out: STAT3)	also measured
CCCOC(=O)[C@H](C)NP(=O)(Cc1ccc2sc(C(=O)N[C@H]3CCCC[C@H]4CC[C@@H](C(=O)N5CCC(c6cccnc6)C5)N4C3=O)cc2c1)Oc1ccccc1 (stereo partly drawn) [Compound 253, propyl (((2-(((3S,6S,10aS)-5-oxo-3-(3-(pyridin-3-yl)pyrrolidine-1-carbonyl)decahydropyrrolo[1,2-a]azocin-6-yl)carbamoyl)benzo [b]thiophen-5-yl)methyl)(phenoxy)phosphoryl)-L-alaninate]	–	–	> 3000 nM	IC50 (pY641-STAT6 in PBMC; STAT6, PBMC, Table 115): 100 to 1000 nM
CCCOC(=O)[C@H](C)NP(=O)(Oc1ccccc1)C(F)c1ccc2sc(C(=O)N[C@H]3CCCC[C@H]4CC[C@@H](C(=O)N5C[C@@H](c6cccc(OC)c6)[C@H](C#N)C56CC6)N4C3=O)cc2c1 (single isomer, unassigned) [Compound 326]	–	–	> 3000 nM	IC50 (pY641-STAT6 in PBMC; STAT6, PBMC, Table 115): < 100 nM
CC(C)(C)C(=O)OCOP(=O)(OCOC(=O)C(C)(C)C)C(F)(F)c1ccc2sc(C(=O)N[C@H]3CCC[C@H]4CC[C@@H](C(=O)N5CC(C(=O)N6CCOCC6)C5)N4C3=O)cc2c1 [Compound 187, (((difluoro(2-(((3S,6S,9aS)-3-(3-(morpholine-4-carbonyl)azetidine-1-carbonyl)-5-oxooctahydro-1H-pyrrolo[1,2-a]azepin-6-yl)carbamoyl)benzo[b]thiophen-5-yl)methyl)phosphoryl)bis (oxy))bis (methylene) bis(2,2-dimethyl-propanoate)]	< 100 nM	1000 to 3000 nM	–	–
CN(C(=O)[C@@H]1CC[C@@H]2CCCC[C@H](NC(=O)c3cc4cc(C(F)(F)P(=O)(OCOC(=O)C(C)(C)C)OCOC(=O)C(C)(C)C)ccc4[nH]3)C(=O)N21)c1ccccc1 [Compound 142, (((difluoro(2-(((3S,6S,10aS)-3-(methyl(phenyl)carbamoyl)-5-oxodecahydro-pyrrolo[1,2-a]azocin-6-yl)carbamoyl)-1H-indol-5-yl)methyl)phosphoryl)bis(oxy)) bis(methylene) bis(2,2-dimethylpropanoate)]	100 to 1000 nM	< 100 nM	–	–
CCCOC(=O)[C@H](C)NP(=O)(Oc1ccccc1)C(F)c1ccc2sc(C(=O)N[C@H]3CCCC[C@H]4CC[C@@H](C(=O)N5CCC(c6cccnc6)C5)N4C3=O)cc2c1 (stereo partly drawn) [Compound 320, propyl ((fluoro(2-(((3S,6S,10aS)-5-oxo-3-(3-(pyridin-3-yl)pyrrolidine-1-carbonyl)decahydropyrrolo[1,2-a]azocin-6-yl)carbamoyl)benzo [b]thiophen-5-yl)methyl)(phenoxy)phosphoryl)-L-alaninate]	–	–	< 100 nM	IC50 (pY641-STAT6 in PBMC; STAT6, PBMC, Table 115): 100 to 1000 nM
CC(C)OC(=O)OCOP(=O)(OCOC(=O)OC(C)C)C(F)(F)c1ccc2ccc(C(=O)N[C@H]3CCCC[C@H]4CC[C@@H](C(=O)N5C[C@@H](C#N)[C@H](c6cc[nH]c(=O)c6)C5)N4C3=O)cc2c1 (single isomer, unassigned) [Compound 1088]	–	–	1000 to 3000 nM	IC50 (pY641-STAT6 in PBMC; [2]): < 100 nM
CC(C)CC(=O)SCCOP(=O)(OCOC(=O)OC1COC1)C(F)(F)c1ccc2sc(C(=O)N[C@H]3CCCC[C@H]4CC[C@@H](C(=O)N5C[C@H](c6cc[nH]c(=O)c6)[C@@H](C#N)C5)N4C3=O)cc2c1 (single isomer, unassigned) [Compound 1093]	–	–	> 3000 nM	IC50 (pY641-STAT6 in PBMC; [2]): 100 to 1000 nM
CCCC(=O)SCCOP(=O)(Oc1cccc(C#N)c1)C(F)(F)c1ccc2sc(C(=O)N[C@H]3CCCC[C@H]4CC[C@@H](C(=O)N5C[C@@H](C#N)[C@H](c6ccccc6)C5)N4C3=O)cc2c1 (single isomer, unassigned) [Compound 138, S-(2-((((2-(((3S,6S,10aS)-3-((3S,4R or 3R,4S)-3-cyano-4-phenylpyrrolidine-1-carbonyl)-5-oxodecahydro-pyrrolo[1,2-a]azocin-6-yl)carbamoyl)benzo[b]thiophen-5-yl)difluoromethyl) (3-cyanophenoxy)phosphoryl)oxy)ethyl)butane-thioate]	> 3000 nM	–	–	IC50 (pY641-STAT6 in PBMC; pSTAT6, PBMC, Table 1114): 100 to 1000 nM
CC(C)CC(=O)SCCOP(=O)(OCOC(=O)O[C@H]1CCOC1)C(F)(F)c1ccc2sc(C(=O)N[C@H]3CCCC[C@H]4CC[C@@H](C(=O)N5C[C@H](c6cc[nH]c(=O)c6)[C@@H](C#N)C5)N4C3=O)cc2c1 (single isomer, unassigned) [Compound 1097]	–	–	1000 to 3000 nM	IC50 (pY641-STAT6 in PBMC; [2]): 100 to 1000 nM
CCOC(=O)[C@H](C)NP(=O)(Cc1ccc2ccc(C(=O)N[C@H]3CCCC[C@H]4CC[C@@H](C(=O)N5CC(c6ccccc6)CC56CC6)N4C3=O)cc2c1)Oc1ccccc1 (stereo partly drawn) [Compound 396, ethyl (((7-(((3S,6S,10aS)-5-oxo-3-(6-phenyl-4-azaspiro[2.4]heptane-4-carbonyl)decahydropyrrolo[1,2-a]azocin-6-yl)carbamoyl)naphthalen-2-yl)methyl)(phenoxy)phosphoryl)-L-alaninate]	–	–	> 3000 nM	IC50 (pY641-STAT6 in PBMC; STAT6, PBMC, Table 115): 1000 to 3000 nM
CCCC(=O)SCCOP(=O)(OCCSC(=O)CCC)C(F)(F)c1ccc2sc(C(=O)N[C@H]3CCC[C@H]4CC[C@@H](C(=O)N5CC(c6ncccn6)C5)N4C3=O)cc2c1 [Compound 940, S,S′-((((difluoro(2-(((3S,6S,9aS)-5-oxo-3-(3-(pyrimidin-2-yl)azetidine-1-carbonyl)octahydro-1H-pyrrolo[1,2-a]azepin-6-yl)carbamoyl)benzo [b]thiophen-5-yl)methyl)phosphoryl)bis(oxy))bis(ethane-2,1-diyl)) dibutanethioate]	–	–	< 100 nM	IC50 (pY641-STAT6 in PBMC; [2]): 100 to 1000 nM

Continued, in another order:

IC50 (pY705-STAT3 in PBMC; Table 1114, read-out: pSTAT3)	IC50 (pY641-STAT6 in PBMC; [1])	Compound	IC50 (pY705-STAT3 in PBMC; Table 115, read-out: STAT3)	also measured
> 3000 nM	> 3000 nM	CC(C)(C)C(=O)SCCOP(=O)(Cc1ccc2sc(C(=O)N[C@H]3CCCC[C@H]4CC[C@@H](C(=O)N5C[C@@H](C#N)[C@H](c6ccccc6)C5)N4C3=O)cc2c1)OCCSC(=O)C(C)(C)C (single isomer, unassigned) [Compound 149, S,S′-(((((2-(((3S,6S,10aS)-3-((3S,4R or 3R,4S)-3-cyano-4-phenylpyrrolidine-1-carbonyl)-5-oxodecahydro-pyrrolo[1,2-a]azocin-6-yl)carbamoyl)benzo[b]thiophen-5-yl)methyl)phosphoryl)bis (oxy))bis(ethane-2,1-diyl))bis(2,2-dimethyl-propanethioate)]	–	–
< 100 nM	> 3000 nM	CC(C)(C)C(=O)OCOP(=O)(OCOC(=O)C(C)(C)C)C(F)(F)c1ccc2sc(C(=O)N[C@H]3CCC[C@H]4CC[C@@H](C(=O)N5CC(c6cccnc6)C5)N4C3=O)cc2c1 [Compound 189, (((difluoro(2-(((3S,6S,9aS)-5-oxo-3-(3-(pyridin-3-yl)azetidine-1-carbonyl)octahydro-1H-pyrrolo[1,2-a]azepin-6-yl)carbamoyl)benzo[b]thiophen-5-yl)methyl)phosphoryl)bis (oxy))bis (methylene) bis(2,2-dimethyl-propanoate)]	–	–
> 3000 nM	100 to 1000 nM	CC(C)(C)C(=O)SCCOP(=O)(OCCSC(=O)C(C)(C)C)C(F)(F)c1ccc2sc(C(=O)N[C@H]3C[C@@H](O)CC[C@H]4CC[C@@H](C(=O)N5C[C@@H](C#N)[C@H](c6ccccc6)C5)N4C3=O)cc2c1 (single isomer, unassigned) [Compound 129, S,S′-(((((2-(((3S,6S,8S,10aR)-3-((3S,4R or 3R,4S)-3-cyano-4-phenylpyrrolidine-1-carbonyl)-8-hydroxy-5-oxodecahydro-pyrrolo[1,2-a]azocin-6-yl)carbamoyl)benzo [b]thiophen-5-yl)difluoromethyl)phosphoryl)bis(oxy))bis(ethane-2,1-diyl)) bis(2,2-dimethylpropane-thioate]	–	–
100 to 1000 nM	< 100 nM	CCCC(=O)SCCOP(=O)(OCCSC(=O)CCC)C(F)(F)c1ccc2sc(C(=O)N[C@H]3CCCC[C@H]4CC[C@@H](C(=O)N(C)c5ccc6nnccc6c5)N4C3=O)cc2c1 [Compound 131, S,S′-(((((2-(((3S,6S,10aS)-3-(cinnolin-6-yl(methyl)carbamoyl)-5-oxodecahydro-pyrrolo[1,2-a]azocin-6-yl)carbamoyl)benzo[b]thiophen-5-yl)difluoromethyl)phosphoryl)bis (oxy))bis(ethane-2,1-diyl)) dibutanethioate]	–	–
